Data published in patent US9907852B2, “Anticancer agent and side-effect-alleviating agent” (National University Corporation University of Toyama, priority 2014, dated 2018).

Legend:
[1] = test system: tumor tissue; test: Occurrence of ulcer in the tumor tissue (Test Example 2); format: in vivo; conditions: rate of mice which generated ulcer in the tumor; administration over 5 weeks
Description: In the course of the growth of tumor, nutrition and oxygen have to be supplied over the grown entire tumor tissue through the blood vessels. In most of tumor, however, it is considered that these are not supplied sufficiently because of immature angioplasty to cause a partial necrosis of tissue and an ulcerous portion occurs. In this situation, in order to inspect the effect of normalization of intra-tumor blood stream by the above described Burdock Fruit extract, the occurrence of ulcer in the tumor tissue after the respective treatments was observed.
(§1) For tumor tissue, a single administration of a Burdock Fruit extract, a single administration of bevacizumab and a combined administration of a Burdock Fruit extract and bevacizumab were performed over a period of 5 weeks. […] Thus, the suppression effect on ulcer generation in tumor was recognized in the Burdock Fruit extract-administered group and the concomitantly administered group compared with that in the untreated group and the bevacizumab-administered group. In the bevacizumab-administered group, the inhibitory effect for ulcer generation was recognized in comparison with the untreated group, though it was temporal. This effect is considered to be an inhibitory activity of bevacizumab for angiogenesis. […]

[2] = test system: Human pancreatic cancer cell Suit 2; test: Tumor size in mice transplanted subcutaneously with Suit 2 (Test Example 1); format: in vivo; conditions: after 4 weeks from the starting of treatment; extract 0.5% (w/w) in feed, bevacizumab 5 mg/kg i.p. once a week, gemcitabine 100 mg/kg i.p. twice a week
Experimental: (§2) Human pancreatic cancer cell Suit 2 (1×10^6 cells) was transplanted subcutaneously to BALB/cAJc1-nu/nu mice (CLEA Japan, Inc.) . On 21th day after the transplantation, the transplanted mice were divided into 4 groups, that is, (a) an untreated group, (b) a group to which a Burdock Fruit extract was administered, (c) a group to which bevacizumab was administered, and (d) a group to which gemcitabine was administered, and the treatment was continued for 4 weeks. The Burdock Fruit extract of Example 1 was mixed into feed at a rate of 0.5% (w/w) and the resultant was given to mice. The ingestion of feed was 3 to 5 g a day for a mouse, from which the intake of arctigenin was calculated as […]. Bevacizumab, as Avastin 100 mg/4 ml for intravenous injection (Chugai Pharm. Co.) , was intraperitoneally injected at a dose of 5 mg/kg once a week. As gemcitabine, an intravenous drip preparation of gemcitabine (Eli Lilly and Co.) was intraperitoneally injected at a dose of 100 mg/kg twice a week.
The average tumor size after 4 weeks from the starting of treatment in the respective groups was as follows: (a) 228 mm^2 in the untreated group; (b) 189 mm^2 in the Burdock Fruit extract administered group; (c) 56 mm^2 in the bevacizumab administered group to which was; and (d) 68 mm^2 in the gemcitabine administered group.

[3] = test system: tumor tissue; test: Survival period after 5 weeks of treatment (Test Example 2); format: in vivo, mice; conditions: treatment terminated after 5 weeks, survival followed up
Experimental: as §1, with “angiogenesis. On the other hand, when the combined administration of a Burdock Fruit extract in addition to bevacizumab, the inhibitory effect on ulcer generation was raised. This is considered that, in addition to the improved effect for blood stream in tumor by a single preparation of bevacizumab, the blood stream was further improved by combined administration of a Burdock Fruit extract which suppressed an occurrence of a hypoxia and undernutritional region and further suppressed angiogenesis. Thus, since the combined administration of arctigenin can markedly reduce a hypoxia and undernutritional region, it is expected to suppress the malignant transformation of cancer.” for “angiogenesis.”

[4] = test system: Human colorectal cancer cells LS174T; test: Tumor weight in mice transplanted subcutaneously with LS174T (Test Example 7); format: in vivo; conditions: after 4 weeks; extract 250 mg/kg oral 6 times a week, bevacizumab 5 mg/kg i.p. once a week
Experimental: (§3) On the 14th day, the transplanted mice were divided into 4 groups, that is, (a) an untreated group, (b) a bevacizumab-administered group, (c) a Gogoshi extract-administered group, and (d) a group of combined administration of a Burdock Fruit extract and bevacizumab (combined administration group), and the treatment was continued for 4 weeks. When a Burdock Fruit extract was administered, 250 mg/kg of Burdock Fruit extract (25 mg/kg as arctigenin) of Example 1 was orally administered 6 times a week. Bevacizumab, as Avastin for intravenous drip injection (100 mg/4 ml) (Chugai Pharm. Co.), was intraperitoneally injected at a dose of 5 mg/kg once a week.
After termination of the therapeutic test, the tumor weight was measured in the respective groups. As results, the tumor weight after termination of the therapeutic test was as follows: 2.51 g in the untreated group, 1.33 g in the bevacizumab administered group, 1.25 g in the Burdock Fruit extract administered group, and 0.68 g in the combined administration group. Accordingly, in any group including the bevacizumab administered group, the Burdock Fruit extract administered group and the combined administration group, the inhibition of increase of tumor weight was recognized compared with the untreated group. […]

[5] = test system: Human colorectal cancer cells LS174T; test: Proportion of cancer stem cells in tumor by flow cytometry, LS174T (Test Example 7); format: in vivo, mice; conditions: after termination of the treatment test (4 weeks)
Experimental: as §3
The cancer cells were then recovered from the tumor tissue, and using the double positive markers, CD133 and CD44, the proportion of CD133^+, CD44^+ cells in tumor after termination of the treatment test was evaluated by means of a FACS ARIA II flow cytometer (BD bioscience).

[6] = test system: Human pancreatic cancer cell Suit 2; test: Uptake of gadolinium DTPA in tumor tissue by MRI, blood stream in tumor (Test Example 1); format: in vivo, mice; conditions: after intravenous injection of gadolinium DTPA; after 4 weeks of treatment
Experimental: as §2
After 4 weeks from the starting of treatment, the uptake of gadolinium DTPA in the mouse tumor tissue was evaluated in the respective groups. […] From this photograph the signal intensity of gadolinium DTPA in the tumor tissue was measured. […]

[7] = Toxicity test by concomitant repeated-dose administration (Test Example 8); format: in vivo, mice; conditions: after 7 weeks
Experimental: SIX SCR-ICR mice (female of 6 weeks of age) (SLC Co.) were used in each of 4 groups, that is, (a) untreated group, (b) gemcitabine administered group, (c) Burdock Fruit extract administered group, and (d) group of combined administration of Burdock Fruit extract and gemcitabine (combined administration group). In each group, each of the therapeutic agents was administered continuously for a period of 7 weeks.
Burdock Fruit extract, 250 mg/kg prepared in Example 1 (25 mg/kg as arctigenin) , was orally administered 5 times a week. As gemcitabine, an intravenous drip preparation of gemcitabine (Eli Lilly and Co.) was used, and 100 mg/kg was intraperitoneally administered once a week.
During the term of administration for about 7 weeks, measurement of body weight, observation of skin and oral state, as well as observation of feces were practiced every 5 days. As a result, there was recognized no symptom which reminded any side effect such as inflammation in skin and mucous membrane, depilation or diarrhea in all of the administered groups. In addition, generally there was no difference of significance in body weight which is an indicator of nausea, loss of appetite, side effect in digestive system, and the like.
After termination of administration, the mice were anesthetized deeply, subjected to thoracotomy and complete blood drawing from heart. In addition, kidney, liver, spleen and lung were recovered, the weight was measured.
In addition, a hemocytic and biochemical examination was carried out using the collected blood.

[8] = test system: Human pancreatic cancer cells Miapaca-2; test: Proportion of the cancer stem cells in tumor by flow cytometry, Miapaca-2 (Test Example 3); format: in vivo, mice; conditions: after the therapeutic test (4 weeks)
Experimental: Human pancreatic cancer cells Miapaca-2 (ATCC CRL 1420) (5×10^6 cells/200 μl) were transplanted subcutaneously under the armpit of BALB/cAJcl nu/nu mice (CLEA Japan, Inc.) . After feeding for about 2-3 weeks, those of which cancer grew to about 100 mm^3 were selected and employed as the subject mice to be treated.
The subject mice of treatment were divided into 4 groups, that is, (a) an untreated group, (b) a group administered gemcitabine, (c) a group administered a Burdock Fruit extract, and (d) a group administered in combination with a Burdock Fruit extract and gemcitabine (combined administration group), and the treatment was continued for 4 weeks. The Burdock Fruit extract, 250 mg/kg prepared in Example 1 (25 mg/kg or more as arctigenin), was orally administered everyday (for 5 times a week). As gemcitabine, an intravenous drip preparation of gemcitabine (Eli Lilly and Co.) was used, and 150 mg/kg was intraperitoneally given twice a week.
The cancer cells were recovered from the tumor tissue after termination of the treatment test, and using the triple positive markers, CD24, CD44 and ESA (CD326) as well as the double positive markers, CD133 and CD44, and the proportion of CD44^+, CD24^+, CD326^+ cells (triple positive) and CD133^+, CD44^+ cells (double positive) was evaluated. In the evaluation, a FACS ARIA II flow cytometer (BD bioscience) was used.

[9] = test system: Human pancreatic cancer cells Miapaca-2; test: Tumor weight in mice transplanted subcutaneously with Miapaca-2 (Test Example 3); format: in vivo; conditions: after 4 weeks; extract 250 mg/kg oral 5 times a week, gemcitabine 150 mg/kg i.p. twice a week
Experimental: Human pancreatic cancer cells Miapaca-2 (ATCC CRL 1420) (5×10^6 cells/200 μl) were transplanted subcutaneously under the armpit of BALB/cAJcl nu/nu mice (CLEA Japan, Inc.) . After feeding for about 2-3 weeks, those of which cancer grew to about 100 mm^3 were selected and employed as the subject mice to be treated. The subject mice of treatment were divided into 4 groups, that is, (a) an untreated group, (b) a group administered gemcitabine, (c) a group administered a Burdock Fruit extract, and (d) a group administered in combination with a Burdock Fruit extract and gemcitabine (combined administration group), and the treatment was continued for 4 weeks. […] After termination of the therapeutic test, the tumor weight was measured in the respective groups.

[10] = test system: Human pancreas cancer cells Miapaca-2 cells; test: Survival in orthotopic graft model of pancreas cancer (Test Example 4); format: in vivo, mice
Experimental: Human pancreas cancer cells Miapaca-2 cells were suspended in a highly concentrated Matrigel solution (BD bioscience) at 5×10^6 cells/50 μl. A female BALB/cAJcl-nu/nu mice (8 weeks of age) (CLEA Japan, Inc.) were subjected to laparotomy under anesthesia, the above-prepared cell suspension was poured into pancreatic tissue and solidified, followed by suture and closing.
The mice after transplantation were divided into 4 groups (7 mice in one group), that is, an untreated group (Non treat); a group to which 250 mg/kg of Burdock Fruit extract (Kracie Pharm., GBS-01) containing 10% of arctigenin was orally administered every day (GBS-01); a group which was intraperitoneally given 150 mg/kg of gemcitabine (Eli Lilly & Co.) twice a week (Gemcitabine); and a group of combined administration of them(Combination), and the treatment was continued until all of the mice died.
The survival rate was calculated according to the Kaplan-Mayer method by making a curve of survival rate and calculating the median of survival rate (MST) (GraphPad-PRISM 6.2, MDF Co.). The significant difference was evaluated by means of Logrank (Mantel-COX) and Gehan-Breslow-Wilcoxon test. The calculated results were shown on an upper graph of FIG. 5.

[11] = gemcitabine 100 mg/kg i.p. once a week

With bevacizumab the “duration until the generation of ulcer reached 50%” value [1] was 10 days, the average tumor size [2] was 56 mm^2 and the 50% survival period [3] was 107 days. For the same molecule, the tumor weight [4] was 1.33 g, the “proportion of CD133+, CD44+ cells (double positive) in tumor” value [5] was 0.552% and the “increase of signal intensity in the central part of tumor tissue (in words)” value [6] was “tendency of increasing”.

With `Nc1ccn([C@@H]2O[C@H](CO)[C@@H](O)C2(F)F)c(=O)n1` [gemcitabine] the “hematocrit value (in words)” value [7] was “lowering”, the “hemoglobin value (in words)” value [7] was “lowering” and the “weight/body weight rate (%) of liver, lowering compared with the untreated group” value [7, 11] was “about 20%”. For the same molecule, the “weight/body weight rate (%) of spleen, lowering compared with the untreated group” value [7, 11] was “about 20%”, the “number of erythrocytes compared with the untreated group” value ([7]; value as % of untreated) was “approximately 87%” and the “number of leukocytes compared with the untreated group” value ([7]; value as % of untreated) was “approximately 50%”. For the same molecule, the “number of platelets compared with the untreated group” value ([7]; value as % of untreated) was “approximately 70%”, the “ALT, rise compared to the untreated group” value ([7]; hepatopathy marker) was 102% and the “AST, rise compared to the untreated group” value ([7]; hepatopathy marker) was 46%. The “ratio of CD133+, CD44+ cells (double positive) in tumor” value [8] was 3.5%, the “ratio of CD44+, CD24+, CD326+ cells (triple positive) in tumor” value ([8]; average of 4 samples) was 1.6% and the average tumor size [2] was 68 mm^2. For the same molecule, the tumor weight [9] was 1.24 g, the “median of survival time (MST)” value ([10]; GBS-01 250 mg/kg oral every day, gemcitabine 150 mg/kg i.p. twice a week, until all mice died) was 86 days and the “prolongation of MST” value ([10]; against the untreated group (65 days)) was 32.3%. The “increase of signal intensity in the central part of tumor tissue (in words)” value [6] was “no increase”.
